From patent US12479849B2, “EGFR inhibitors for the treatment of cancer” (Hoffmann-La Roche Inc., priority 2019, dated 2025)

Molecular target: T1, EGFR TMLRCS (Homo sapiens, UniProt P00533, C797S/L858R/T790M)
T1 construct: host or cells: BaF3-TMLRCS (Ba/F3 cells, kept under puromycin selection)
Experiment: HTRF Phospho EGFR TMLRCS Assay (Cellular)
Type: cell-based
Conditions: BaF3-TMLRCS cell line, 4 hours incubation, Phospho-EGFR HTRF readout
Method in brief: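 BaF3 cells expressing EGFR L858R/T790M/C797S, 20000/well, treated with compound in dose response for 4 h at 37 °C, 5% CO2. After lysis, phospho-EGFR detected by HTRF with cryptate and d2 antibodies over 4 h at room temperature. Signal taken as 665/616 nm ratio ×10000, normalized.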

T1 sequence (P00533 25-1210 T790M/C797S/L858R): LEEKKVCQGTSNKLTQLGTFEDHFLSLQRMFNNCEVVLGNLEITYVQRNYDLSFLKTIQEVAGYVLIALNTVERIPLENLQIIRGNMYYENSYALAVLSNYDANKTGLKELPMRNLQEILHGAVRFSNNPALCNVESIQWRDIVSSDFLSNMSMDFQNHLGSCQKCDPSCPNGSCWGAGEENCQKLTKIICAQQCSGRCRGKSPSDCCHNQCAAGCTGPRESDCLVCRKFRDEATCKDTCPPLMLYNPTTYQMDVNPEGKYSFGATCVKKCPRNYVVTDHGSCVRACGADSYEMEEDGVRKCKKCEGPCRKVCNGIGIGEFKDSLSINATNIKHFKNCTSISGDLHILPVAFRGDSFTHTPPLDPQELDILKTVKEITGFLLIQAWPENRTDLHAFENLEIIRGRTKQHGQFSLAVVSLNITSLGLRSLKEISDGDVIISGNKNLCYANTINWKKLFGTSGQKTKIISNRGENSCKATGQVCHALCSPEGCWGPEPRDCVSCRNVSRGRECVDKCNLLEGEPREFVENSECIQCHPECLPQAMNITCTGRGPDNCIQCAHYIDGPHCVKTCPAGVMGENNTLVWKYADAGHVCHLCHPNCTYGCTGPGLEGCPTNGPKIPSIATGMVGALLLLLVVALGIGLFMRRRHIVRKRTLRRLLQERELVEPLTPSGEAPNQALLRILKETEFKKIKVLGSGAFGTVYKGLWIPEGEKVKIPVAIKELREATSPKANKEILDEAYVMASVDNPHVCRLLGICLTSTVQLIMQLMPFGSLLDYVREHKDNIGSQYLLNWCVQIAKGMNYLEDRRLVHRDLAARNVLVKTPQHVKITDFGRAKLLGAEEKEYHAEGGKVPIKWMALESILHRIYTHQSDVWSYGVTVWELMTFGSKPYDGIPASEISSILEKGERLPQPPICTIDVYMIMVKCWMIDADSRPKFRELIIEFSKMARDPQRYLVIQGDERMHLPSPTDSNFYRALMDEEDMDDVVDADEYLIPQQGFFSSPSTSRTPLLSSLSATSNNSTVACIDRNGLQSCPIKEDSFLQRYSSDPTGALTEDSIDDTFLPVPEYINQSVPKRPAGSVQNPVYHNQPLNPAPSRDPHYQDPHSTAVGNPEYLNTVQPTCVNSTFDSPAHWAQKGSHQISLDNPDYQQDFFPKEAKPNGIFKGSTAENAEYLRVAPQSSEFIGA

O=C(Nc1nccs1)C(c1ncn2c1C[C@@H](F)C2)n1cc2c(Cl)cc(-c3ccc(N4CCOCC4)cc3)c(C(F)F)c2n1 (mixture of isomers) [Example 106, rac-2-(4-Chloro-7-(difluoromethyl)-6-(4-morpholinophenyl)-2H-indazol-2-yl)-2-((R)-6-fluoro-6,7-dihydro-5H-pyrrolo[1,2-c]imidazol-1-yl)-N-(thiazol-2-yl)acetamide]
IC50: 8 nM

CN(CCN1CC(CO)C1)c1ccc(-c2cc(Cl)c3cn(C(C(=O)Nc4nccs4)c4ncn5c4C[C@@H](F)C5)nc3c2Cl)cc1 (stereo partly shown) [Example 89]
IC50: 10 nM

CCN1CC[C@H](c2ccc(-c3cc(Cl)c4cn(C(C(=O)Nc5nccs5)c5ncn6c5C[C@@H](F)C6)nc4c3Cl)cc2)[C@@H](F)C1 (mixture of isomers) [Example 32, 2-(4,7-Dichloro-6-(4-(rac-(3R,4R)-1-ethyl-3-fluoropiperidin-4-yl)phenyl)-2H-indazol-2-yl)-2-((R)-6-fluoro-6,7-dihydro-5H-pyrrolo[1,2-c]imidazol-1-yl)-N-(thiazol-2-yl)acetamide]
IC50: 4 nM

O=C(Nc1nccs1)C(c1ncn2c1C[C@@H](F)C2)n1cc2c(Cl)cc(-c3ccc(N4CCC(O)CC4)cc3)c(Cl)c2n1 (mixture of isomers) [Example 39, rac-2-(4,7-Dichloro-6-(4-(4-hydroxypiperidin-1-yl)phenyl)-2H-indazol-2-yl)-2-((R)-6-fluoro-6,7-dihydro-5H-pyrrolo[1,2-c]imidazol-1-yl)-N-(thiazol-2-yl)acetamide]
IC50: 4 nM

Cc1cc(-c2ccc(N3CCOCC3)cc2)c(Cl)c2nn(C(C(=O)Nc3nccs3)c3ncn4c3C[C@@H](F)C4)cc12 (stereo partly drawn) [Example 128, 2-(7-Chloro-4-methyl-6-(4-morpholinophenyl)-2H-indazol-2-yl)-2-((R)-6-fluoro-6,7-dihydro-5H-pyrrolo[1,2-c]imidazol-1-yl)-N-(thiazol-2-yl)acetamide]
IC50: 5 nM

CC(O)C1CN(CCc2ccc(-c3cc(Cl)c4cn(C(C(=O)Nc5nccs5)c5ncn6c5C[C@@H](F)C6)nc4c3Cl)cc2)C1 (mixture of isomers) [Example 100, rac-2-(4,7-Dichloro-6-(4-(2-(3-(1-hydroxyethyl)azetidin-1-yl)ethyl)phenyl)-2H-indazol-2-yl)-2-((R)-6-fluoro-6,7-dihydro-5H-pyrrolo[1,2-c]imidazol-1-yl)-N-(thiazol-2-yl)acetamide]
IC50: 12 nM

O=C(Nc1nccs1)C(c1ncn2c1C[C@@H](F)C2)n1cc2c(Cl)cc(-c3ccc(CCCN4CCC(CO)CC4)cc3)c(Cl)c2n1 (mixture of isomers) [Example 47, rac-2-(4,7-Dichloro-6-(4-(3-(4-(hydroxymethyl)piperidin-1-yl)propyl)phenyl)-2H-indazol-2-yl)-2-((R)-6-fluoro-6,7-dihydro-5H-pyrrolo[1,2-c]imidazol-1-yl)-N-(thiazol-2-yl)acetamide]
IC50: 8 nM

O=C(Nc1nccs1)C(c1ncn2c1C[C@@H](F)C2)n1cc2c(Cl)cc(-c3cnc(N4CCOCC4)nc3)c(Cl)c2n1 (stereo partly drawn) [Example 27, 2-(4,7-Dichloro-6-(2-morpholinopyrimidin-5-yl)-2H-indazol-2-yl)-2-((R)-6-fluoro-6,7-dihydro-5H-pyrrolo[1,2-c]imidazol-1-yl)-N-(thiazol-2-yl)acetamide]
IC50: 5 nM

O=C(Nc1nccs1)C(c1ncn2c1C[C@@H](F)C2)n1cc2c(Cl)cc(-c3ccc(CN4CC5(CC(O)C5)C4)cc3)c(Cl)c2n1 (mixture of isomers) [Example 62, rac-2-(4,7-Dichloro-6-(4-((6-hydroxy-2-azaspiro[3.3]heptan-2-yl)methyl)phenyl)-2H-indazol-2-yl)-2-((R)-6-fluoro-6,7-dihydro-5H-pyrrolo[1,2-c]imidazol-1-yl)-N-(thiazol-2-yl)acetamide]
IC50: 8 nM

O=C(Nc1nccs1)C(c1ncn2c1C[C@@H](F)C2)n1cc2c(Cl)cc(-c3ccc(C4CC(CN5CCC(CO)CC5)C4)cc3)c(Cl)c2n1 (mixture of isomers) [Example 75, rac-2-(4,7-Dichloro-6-(4-(34(4-(hydroxymethyl)piperidin-1-yl)methyl)cyclobutyl)phenyl)-2H-indazol-2-yl)-2-((R)-6-fluoro-6,7-dihydro-5H-pyrrolo[1,2-c]imidazol-1-yl)-N-(thiazol-2-yl)acetamide]
IC50: 8 nM
